The results in this text go back to patent US12624018B1, “Inhibitors of RIPK2 and medical uses thereof” (Odyssey Therapeutics, Inc., priority 2022, dated 2026).

The target in the experiment is T1, RIPK2 enzyme (Homo sapiens, UniProt O43353).
T1 construct: purchased Carna 09-128
T1 sequence (O43353 1-299 limits assumed): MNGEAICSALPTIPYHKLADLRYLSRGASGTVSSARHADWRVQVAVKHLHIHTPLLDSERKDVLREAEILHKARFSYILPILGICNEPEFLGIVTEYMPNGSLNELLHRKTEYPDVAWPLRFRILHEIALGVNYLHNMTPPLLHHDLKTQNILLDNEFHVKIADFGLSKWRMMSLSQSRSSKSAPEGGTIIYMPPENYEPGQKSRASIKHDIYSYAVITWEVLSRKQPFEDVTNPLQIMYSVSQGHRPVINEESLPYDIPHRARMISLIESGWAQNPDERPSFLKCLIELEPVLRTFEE
Nature of the experiment: RIPK2 inhibition (ADP-Glo Kinase Assay). It counts as biochemical. Particulars: RIPK2 5 nM, ATP 150 μM, MBP substrate, read-out: RIPK2 IC50. In outline: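 Human RIPK2 (5 nM) preincubated with compound 30 min at room temperature in 50 mM HEPES pH 7.5, 10 mM MgCl2, 2 mM DTT, 1 mM EGTA, 0.01% Brij-35, 0.05% BSA; native swine MBP as substrate. ADP formed quantified by ADP-Glo luminescence; percent inhibition relative to DMSO and no-enzyme controls.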
(In general: ADP-Glo turns the ADP formed in a reaction into a luminescent signal.)
The term IC50 denotes the concentration at which inhibition is half-maximal. As to `CC(C)(C)n1cc(NC(=O)Cc2ccc(Oc3ncnc4ccc(OCCN5CCCC5)cc34)cc2F)cn1` [Compound 17, N-(1-(tert-butyl)-1H-pyrazol-4-yl)-2-(2-fluoro-4-((6-(2-(pyrrolidin-1-yl)ethoxy)quinazolin-4-yl)oxy)phenyl) acetamide], the IC50 was determined as 27.4 nM.
On to `CN1CC(Oc2ccc3ncnc(Oc4ccc(CC(=O)Nc5cnn(C(C)(C)C)c5)c(F)c4)c3c2)C1` [Compound 18, N-(1-(tert-butyl)-1H-pyrazol-4-yl)-2-(2-fluoro-4-((6-((1-methyl-azetidin-3-yl)oxy)quinazolin-4-yl)oxy)phenyl) acetamide], for which the IC50 amounted to 7.9 nM.
Regarding `CN1CCC(Oc2ccc3ncnc(Oc4ccc(CC(=O)Nc5cnn(C(C)(C)C)c5)c(F)c4)c3c2)CC1` [Compound 19, N-(1-(tert-butyl)-1H-pyrazol-4-yl)-2-(2-fluoro-4-((6-((1-methyl-piperidin-4-yl)oxy)quinazolin-4-yl)oxy)phenyl) acetamide], the IC50 came out at 4.2 nM.
As for `CC(C)(C)c1ccnc(NC(=O)Cc2ccc(Oc3ncnc4ccc(F)cc34)cc2F)c1` [Compound 21, N-(4-(tert-butyl)pyridin-2-yl)-2-(2-fluoro-4-((6-fluoroquinazolin-4-yl)oxy)phenyl) acetamide], the IC50 is 36.6 nM.
Take `CC(C)c1ccnc(NC(=O)Cc2ccc(Oc3ncnc4ccc(F)cc34)cc2F)c1` [Compound 22, 2-(2-fluoro-4-((6-fluoroquinazolin-4-yl)oxy)phenyl)-N-(4-isopropylpyridin-2-yl)acetamide]: the IC50 is 23.9 nM.
Consider `COc1ccc2ncnc(Oc3ccc(CC(=O)Nc4noc(C(C)(C)C)n4)c(F)c3)c2c1` [Compound 23, N-(5-(tert-butyl)-1,2,4-oxadiazol-3-yl)-2-(2-fluoro-4-((6-methoxy-quinazolin-4-yl)oxy)phenyl) acetamide], for which the IC50 came out at 14.4 nM.
Regarding `CC(C)(C)n1cc(NC(=O)Cc2ccc(Oc3ncnc4ccc(C(N)=O)cc34)cc2F)cn1` [Compound 24, 4-(4-(2-((1-(tert-butyl)-1H-pyrazol-4-yl)amino)-2-oxoethyl)-3-fluoro-phenoxy) quinazoline-6-carboxamide], the IC50 is 7.4 nM.
`CNC(=O)c1ccc2ncnc(Oc3ccc(CC(=O)Nc4cnn(C(C)(C)C)c4)c(F)c3)c2c1` [Compound 25, 4-(4-(2-((1-(tert-butyl)-1H-pyrazol-4-yl)amino)-2-oxoethyl)-3-fluoro-phenoxy)-N-methyl-quinazoline-6-carboxamide]: the IC50 turned out to be 4.3 nM.
For the molecule `CN(C)C(=O)c1ccc2ncnc(Oc3ccc(CC(=O)Nc4cnn(C(C)(C)C)c4)c(F)c3)c2c1` [Compound 26, 4-(4-(2-((1-(tert-butyl)-1H-pyrazol-4-yl)amino)-2-oxoethyl)-3-fluorophenoxy)-N,N-dimethylquinazoline-6-carboxamide], the concentration for half-maximal inhibition (IC50) was determined as 21 nM.
With `CC(C)(C)n1cc(NC(=O)Cc2ccc(Oc3ncnc4ccc(C(=O)N5CCCC5)cc34)cc2F)cn1` [Compound 27, N-(1-(tert-butyl)-1H-pyrazol-4-yl)-2-(2-fluoro-4-((6-(pyrrolidine-1-carbonyl)quinazolin-4-yl)oxy)phenyl) acetamide], the IC50 was found to be 19.2 nM.
As for `COc1ccc2ncnc(Oc3ccc(CC(=O)Nc4cc(C(C)(C)C)ccn4)c(F)c3)c2c1` [Compound 28, N-(4-(tert-butyl)pyridin-2-yl)-2-(2-fluoro-4-((6-methoxy-quinazolin-4-yl)oxy)phenyl) acetamide], the IC50 was found to be 12.7 nM.
`COc1ccc2ncnc(Oc3cnc(CC(=O)Nc4cc(C(C)(C)C)ccn4)c(F)c3)c2c1` [Compound 29, N-(4-(tert-butyl)pyridin-2-yl)-2-(3-fluoro-5-((6-methoxy-quinazolin-4-yl)oxy)pyridin-2-yl)acetamide]: the IC50 amounted to 5.2 nM.
The value for `COc1ccc2ncnc(Oc3ccc(CC(=O)Nc4cc(C(C)(C)C)cnn4)c(F)c3)c2c1` [Compound 30, N-(5-(tert-butyl)pyridazin-3-yl)-2-(2-fluoro-4-((6-methoxy-quinazolin-4-yl)oxy)phenyl) acetamide] was 7.2 nM; that for `COc1ccc2ncnc(Oc3cnc(CC(=O)Nc4cc(C(C)(C)C)cnn4)c(F)c3)c2c1` [Compound 31, N-(5-(tert-butyl)pyridazin-3-yl)-2-(3-fluoro-5-((6-methoxy-quinazolin-4-yl)oxy)pyridin-2-yl)acetamide] was 19.8 nM; that for `COc1ccc2ncnc(Oc3ccc(CC(=O)Nc4cc(C(C)(C)C)ncn4)c(F)c3)c2c1` [Compound 32, N-(6-(tert-butyl)pyrimidin-4-yl)-2-(2-fluoro-4-((6-methoxyquinazolin-4-yl)oxy)phenyl)acetamide] was 13.7 nM.
As for `COc1ccc2ncnc(Oc3cnc(CC(=O)Nc4cc(C(C)(C)C)ncn4)c(F)c3)c2c1` [Compound 33, N-(6-(tert-butyl)pyrimidin-4-yl)-2-(3-fluoro-5-((6-methoxy-quinazolin-4-yl)oxy)pyridin-2-yl)acetamide], the half-maximal inhibitory concentration (IC50) turned out to be 85.4 nM.
Then `COc1ccc2ncnc(Oc3ccc(CC(=O)Nc4cc(C5(C(F)(F)F)CC5)ccn4)c(F)c3)c2c1` [Compound 34, 2-(2-fluoro-4-((6-methoxyquinazolin-4-yl)oxy)phenyl)-N-(4-(1-(trifluoromethyl)cyclopropyl)pyridin-2-yl)acetamide], with 33.3 nM.
Turning to `COc1ccc2ncnc(Oc3ccc(CC(=O)Nc4cc(C(C)(C)CO)ccn4)c(F)c3)c2c1` [Compound 35, 2-(2-fluoro-4-((6-methoxy-quinazolin-4-yl)oxy)phenyl)-N-(4-(1-hydroxy-2-methylpropan-2-yl)pyridin-2-yl)acetamide], the IC50 stood at 29.6 nM.
On to `CC(C)(C)n1cc(NC(=O)Cc2ccc(Oc3ccnc4ccc(P(C)(C)=O)cc34)cc2F)cn1` [Compound 36, N-(1-(tert-butyl)-1H-pyrazol-4-yl)-2-(4-((6-(dimethylphosphoryl)quinolin-4-yl)oxy)-2-fluorophenyl)acetamide], for which the IC50 amounted to 4.7 nM.
Regarding `COc1ccc2ncnc(Oc3ccc(CC(=O)Nc4cc(C(C)(C)C)n(C)n4)c(F)c3)c2c1` [Compound 37, N-(5-(tert-butyl)-1-methyl-1H-pyrazol-3-yl)-2-(2-fluoro-4-((6-methoxy-quinazolin-4-yl)oxy)phenyl) acetamide], the IC50 was found to be 7.8 nM.
Then `COc1cc2nccc(Oc3ccc(CC(=O)Nc4cnn(C(C)(C)C)c4)c(F)c3)c2cc1S(C)(=O)=O` [Compound 39, N-(1-(tert-butyl)-1H-pyrazol-4-yl)-2-(2-fluoro-4-((7-methoxy-6-(methylsulfonyl)quinolin-4-yl)oxy)phenyl)acetamide], with less than 2.5 nM; and `Cn1nc(NC(=O)Cc2ccc(Oc3ccnc4ccc(S(C)(=O)=O)cc34)cc2F)cc1C(C)(C)C` [Compound 40, N-(5-(tert-butyl)-1-methyl-1H-pyrazol-3-yl)-2-(2-fluoro-4-((6-(methylsulfonyl)quinolin-4-yl)oxy)phenyl)acetamide], with less than 2.5 nM.
The value for `Cn1nc(NC(=O)Cc2ncc(Oc3ccnc4ccc(S(C)(=O)=O)cc34)cc2F)cc1C(C)(C)C` [Compound 41, N-(5-(tert-butyl)-1-methyl-1H-pyrazol-3-yl)-2-(3-fluoro-5-((6-(methylsulfonyl)quinolin-4-yl)oxy)pyridin-2-yl)acetamide] was 7.6 nM.
The value for `CC(C)(C)c1cc(NC(=O)Cc2ncc(Oc3ccnc4ccc(S(C)(=O)=O)cc34)cc2F)n[nH]1` [Compound 42, N-(5-(tert-butyl)-1H-pyrazol-3-yl)-2-(3-fluoro-5-((6-(methylsulfonyl)quinolin-4-yl)oxy)pyridin-2-yl)acetamide] was 5.5 nM.
Regarding `C[S+]([O-])c1ccc2ncnc(Oc3ccc(CC(=O)Nc4cnn(C(C)(C)C)c4)c(F)c3)c2c1` (stereo not shown) [Compound 44, N-(1-(tert-butyl)-1H-pyrazol-4-yl)-2-(2-fluoro-4-((6-(methylsulfinyl)quinazolin-4-yl)oxy)phenyl)acetamide], the IC50 came to 26.2 nM.
Consider `C[S+]([O-])c1ccc2nccc(Oc3ccc(CC(=O)Nc4cnn(C(C)(C)C)c4)c(F)c3)c2c1` (stereo not shown) [Compound 45, N-(1-(tert-butyl)-1H-pyrazol-4-yl)-2-(2-fluoro-4-((6-(methylsulfinyl)quinolin-4-yl)oxy)phenyl)acetamide], for which the IC50 is less than 2.5 nM.
`CC(C)(C)n1cc(NC(=O)Cc2ccc(Oc3ccnc4ccc(S(N)(=O)=O)cc34)cc2F)cn1` [Compound 46, N-(1-(tert-butyl)-1H-pyrazol-4-yl)-2-(2-fluoro-4-((6-sulfamoylquinolin-4-yl)oxy)phenyl)acetamide]: the IC50 was less than 2.5 nM.
Then `COc1ccc2ncnc(Oc3ccc(CC(=O)Nc4cnn(C(C)(C)C)c4)c(F)c3F)c2c1` [Compound 47, N-(1-(tert-butyl)-1H-pyrazol-4-yl)-2-(2,3-difluoro-4-((6-methoxy-quinazolin-4-yl)oxy)phenyl) acetamide], with 3.9 nM; and `CCOc1ccc2nccc(Oc3cnc(CC(=O)Nc4cnn(C(C)(C)C)c4)c(F)c3)c2c1` [Compound 48, N-(1-(tert-butyl)-1H-pyrazol-4-yl)-2-(5-((6-ethoxyquinolin-4-yl)oxy)-3-fluoropyridin-2-yl)acetamide], with 9.2 nM.
Consider `CC(C)(C)n1cc(NC(=O)Cc2ccc(Oc3ncnc4ccc(OC5COC5)cc34)cc2F)cn1` [Compound 49, N-(1-(tert-butyl)-1H-pyrazol-4-yl)-2-(2-fluoro-4-((6-(oxetan-3-yloxy)quinazolin-4-yl)oxy)phenyl) acetamide], for which the IC50 was 18.5 nM.
Then `COCCOc1ccc2ncnc(Oc3ccc(CC(=O)Nc4cnn(C(C)(C)C)c4)c(F)c3)c2c1` [Compound 50, N-(1-(tert-butyl)-1H-pyrazol-4-yl)-2-(2-fluoro-4-((6-(2-methoxy-ethoxy)quinazolin-4-yl)oxy)phenyl) acetamide], with 15.4 nM.
